Measured values taken from US8759339B2, “Pyrrolo[2,1-c][1,4]naphthodiazepine linked piperazine compounds and a process for the preparation thereof” (Council of Scientific & Industrial Research, priority 2011, dated 2014).
Read-outs that look alike come from different tables or passages of the source.

Experiments:
[1] = system: PC-3 prostrate cancer cell line; assay: In vitro anticancer activity, MTT assay; assay type: cell-based, human; conditions: for IC50: prostrate cancer cell line, MTT, 48 h continuous drug exposure; for in-vitro cytotoxicity in prostrate cancer cell line (PC-3): result in words
Method: (§1) In vitro biological activity studies were carried out at the pharmacology division, IICT, Hyderabad. The compounds were evaluated for in vitro anticancer activity against eight tumour cell lines derived from […] cancer types (breast, lung, liver, skeletal, kidney, prostrate, small intestine) as shown in Table 2. For each compound, dose response curves for each cell line were measured at a minimum of five concentrations at 10 fold dilutions. A protocol of 48 h continuous drug exposure was used and a MTT assay was used to estimate cell viability or growth. The concentration causing 50% inhibition (IC50) compared with the control was calculated. Some of the compounds have been evaluated for their in vitro cytotoxicity in eight cell lines from seven human cancer types. The results are expressed as IC50 determined relative to that of untreated control cells (Table-2).

[2] = system: HEPG2 liver cancer cell line; assay: In vitro anticancer activity, MTT assay; assay type: cell-based, human; conditions: for in-vitro cytotoxicity in liver cancer cell line (HEPG2): result in words
Method: as §1

[3] = system: A549 lung cancer cell line; assay: In vitro anticancer activity, MTT assay; assay type: cell-based, human; conditions: for in-vitro cytotoxicity in lung cancer cell line (A549): result in words
Method: as §1

[4] = system: MCF7 breast cancer cell line; assay: In vitro anticancer activity, MTT assay; assay type: cell-based, human; conditions: for IC50: breast cancer cell line, MTT, 48 h continuous drug exposure; for in-vitro cytotoxicity in breast cancer cell line (MCF-7): result in words
Method: as §1

[5] = system: NCIH460 large cell lung cancer cell line; assay: In vitro anticancer activity, MTT assay; assay type: cell-based, human; conditions: for IC50: large cell lung cancer cell line, MTT, 48 h continuous drug exposure; for in-vitro cytotoxicity in large cell lung cancer cell line (NCIH460): result in words
Method: as §1

L-6 = assay: In vitro anticancer activity, MTT assay; assay type: cell-based; conditions: skeletal cancer cell line; MTT, 48 h continuous drug exposure
Method: as §1

[6] = In vitro anticancer activity, MTT assay; assay type: cell-based; conditions: kidney cancer cell line, MTT, 48 h continuous drug exposure
Method: as §1

[7] = system: IEC-6 small intestine cell line; assay: In vitro anticancer activity, MTT assay; assay type: cell-based; conditions: for in-vitro cytotoxicity in small intestine cancer cell line (IEC-6): result in words
Method: as §1

calf thymus DNA (CT-DNA) = assay: Thermal denaturation studies with duplex-form calf thymus DNA; assay type: binding; conditions: [PND]/[DNA] molar ratio 1:5, CT-DNA 100 μM, ligand 20 μM, aqueous sodium phosphate buffer pH 7; for ΔTm after incubation at 37° C. for 0 hr: 0 hr at 37° C.; for ΔTm after incubation at 37° C. for 18 hrs: 18 hrs at 37° C.
Method: Compounds have been subjected to thermal denaturation studies with duplex-form calf thymus DNA (CT-DNA) using an modification of a reported procedure (Newman, M. S. Carcinog-compr. Surv. 1976, 1, 203; (b) Hecht, S. S.; Loy, M.; Hoffman, Carcinog-compr. Surv. 1976, 1, 325). Working solutions in aqueous buffer (10 mM NaH2PO4/Na2HPO4, 1 mM Na2EDTA, pH 7.00+0.01) containing CT-DNA (100 μm in phosphate) and the PND (pyrrolo naphtha diazepine) (20 μm) have been prepared by addition of concentrated PND (pyrrolo naphtha diazepine) solutions in DMSO to obtain a fixed [PND]/[DNA] molar ratio of 1:5. The DNA-PND (pyrrolo naphtha diazepine) solutions have been incubated at 37° C. for 0 and 18 h prior to analysis. Samples have been monitored at 260 nm using a Beckman DU-800 spectrophotometer fitted with high performance temperature controller, and heated at 1° C. min in the 40-110° C. range. DNA helix→coil transition temperatures (Tm) have been obtained from the maxima in the d(A260)/dT derivative plots. Drug-induced alterations in DNA melting behavior are given by: ΔTm=Tm(DNA+PND)−Tm(DNA alone), where the Tm value for the PND-free CT-DNA is 69.1±0.01.
The DNA binding activity for these novel substituted piperazine linked pyrrolo naphtho diazepine hybrids has been examined by thermal denaturation studies using calf thymus (CT) DNA. […] The data for some of the compounds are included in Table 1 for comparison.

[8] = system: L-6 skeletal cancer cell line; assay: In vitro anticancer activity, MTT assay; assay type: cell-based; conditions: result in words
Method: as §1

[9] = system: COS-1 kidney cancer cell line; assay: In vitro anticancer activity, MTT assay; assay type: cell-based; conditions: for IC50: COS-1, range over the listed compounds, exposure period of at least 48 hrs, read-out: IC50 against kidney cancer cell lines; for in-vitro cytotoxicity in kidney cancer cell line (COS-1): result in words
Method: as §1

[10] = liver cancer cell line, MTT, 48 h continuous drug exposure, read-out: IC50 HEPG2
[11] = lung cancer cell line, MTT, 48 h continuous drug exposure, read-out: IC50 A549
[12] = small intestine cell line, MTT, 48 h continuous drug exposure, read-out: IC50 IEC-6
[13] = Homo sapiens, HepG2, liver cancer cell line, MTT, 48 h continuous drug exposure, read-out: IC50 HEPG2
[14] = Homo sapiens, HepG2, range over the listed compounds, exposure period of at least 48 hrs, read-out: IC50 against liver cancer cell lines
[15] = Homo sapiens, A549, lung cancer cell line, MTT, 48 h continuous drug exposure, read-out: IC50 A549
[16] = Homo sapiens, A549, range over the listed compounds, exposure period of at least 48 hrs, read-out: IC50 against lung cancer cell lines
[17] = IEC-6, range over the listed compounds, exposure period of at least 48 hrs, read-out: IC50 against small intestine cancer cell lines
[18] = IEC-6, small intestine cell line, MTT, 48 h continuous drug exposure, read-out: IC50 IEC-6

Compound	IC50 [1] [nM]	IC50 [2, 10] [nM]	IC50 [3, 11] [nM]	IC50 [4] [nM]	IC50 [5] [nM]	IC50 (L-6) [nM]	ΔTm after incubation at 37° C. for 0 hr (calf thymus DNA (CT-DNA)) [°C]	ΔTm after incubation at 37° C. for 18 hrs (calf thymus DNA (CT-DNA)) [°C]	IC50 ([1]; Homo sapiens) [nM]	in-vitro cytotoxicity in prostrate cancer cell line (PC-3) [1]	IC50 [2, 13] [nM]	IC50 [2, 14] [nM]	in-vitro cytotoxicity in liver cancer cell line (HEPG2) [2]	IC50 [3, 15] [nM]	IC50 [3, 16] [nM]	in-vitro cytotoxicity in lung cancer cell line (A549) [3]	in-vitro cytotoxicity in breast cancer cell line (MCF-7) [4]	in-vitro cytotoxicity in large cell lung cancer cell line (NCIH460) [5]	in-vitro cytotoxicity in skeletal cancer cell line (L-6) [8]	in-vitro cytotoxicity in small intestine cancer cell line (IEC-6) [7]	other results
COc1cc2c(cc1O)N=CC1CCCN1C2=O (centres unmarked) [DC-81, reference compound]	14200	5270	17500	12600	8930	27600	0.3	0.7	–	–	–	–	–	–	–	–	–	–	–	–	IC50 ([6]; read-out: IC50 COS-1): 32900 nM; IC50 [7, 12]: 15400 nM
COc1cc2cc3c(cc2cc1OCCN1CCN(c2ccc(F)cc2)CC1)C(=O)N1CCC[C@H]1C=N3 [20a, 9-Methoxy-8-(2-[4-(4-fluorophenyl)piperazino]ethoxy)-(13aS)-1,2,3,13a-tetrahydro-5H-pyrrolo[2,1-c][1,4]naphthodiazepin-5-one]	–	–	–	–	–	6360	5.9	7.0	4370	exhibiting in-vitro cytotoxicity	4030	20 to 7320	exhibiting in-vitro cytotoxicity	10600	20 to 11900	exhibiting in-vitro cytotoxicity	exhibiting in-vitro cytotoxicity	exhibiting in-vitro cytotoxicity	exhibiting in-vitro cytotoxicity	exhibiting in-vitro cytotoxicity	IC50 ([4]; Homo sapiens, MCF7): 3990 nM; IC50 ([5]; Homo sapiens, NCI-H460): 990 nM; IC50 [9]: 800 to 4320 nM; IC50 [7, 17]: 10 to 5840 nM; IC50 [7, 18]: 5840 nM
COc1cc2cc3c(cc2cc1OCCN1CCN(C(C)=O)CC1)N=C[C@@H]1CCCN1C3=O [5a, 8-Methoxy-9-[2-(4-acetylpiperazino)ethoxy]-(13aS)-1,2,3,13a-tetrahydro-5H-pyrrolo[2,1-c][1,4]naphthodiazepin-5-one]	13500	7320	660	2880	1680	2660	5.5	7.1	–	exhibiting in-vitro cytotoxicity	–	–	exhibiting in-vitro cytotoxicity	–	–	exhibiting in-vitro cytotoxicity	exhibiting in-vitro cytotoxicity	exhibiting in-vitro cytotoxicity	exhibiting in-vitro cytotoxicity	–	–
COc1cc2cc3c(cc2cc1OCCN1CCN(c2ncccn2)CC1)C(=O)N1CCC[C@H]1C=N3 [24a, 9-Methoxy-8-(2-[4-(2-pyrimidinyl)piperazino]ethoxy)-(13aS)-1,2,3,13a-tetrahydro-5H-pyrrolo[2,1-c][1,4]naphthodiazepin-5-one]	–	–	–	–	–	2210	4.9	6.5	10	exhibiting in-vitro cytotoxicity	1040	20 to 7320	exhibiting in-vitro cytotoxicity	11900	20 to 11900	exhibiting in-vitro cytotoxicity	exhibiting in-vitro cytotoxicity	exhibiting in-vitro cytotoxicity	exhibiting in-vitro cytotoxicity	exhibiting in-vitro cytotoxicity	IC50 ([4]; Homo sapiens, MCF7): 1970 nM; IC50 ([5]; Homo sapiens, NCI-H460): 2 nM; IC50 [9]: 800 to 4320 nM; IC50 [7, 17]: 10 to 5840 nM; IC50 [7, 18]: 200 nM
CCN1CCN(CCOc2cc3cc4c(cc3cc2OC)N=C[C@@H]2CCCN2C4=O)CC1 [15a, 9-Methoxy-8-[2-(4-ethylpiperazino)ethoxy]-(13aS)-1,2,3,13a-tetrahydro-5H-pyrrolo[2,1-c][1,4]naphthodiazepin-5-one]	–	–	–	–	–	1870	6.1	7.2	410	exhibiting in-vitro cytotoxicity	200	20 to 7320	exhibiting in-vitro cytotoxicity	540	20 to 11900	exhibiting in-vitro cytotoxicity	exhibiting in-vitro cytotoxicity	exhibiting in-vitro cytotoxicity	exhibiting in-vitro cytotoxicity	exhibiting in-vitro cytotoxicity	IC50 ([4]; Homo sapiens, MCF7): 40 nM; IC50 ([5]; Homo sapiens, NCI-H460): 1250 nM; IC50 ([6]; COS-1): 3660 nM; IC50 [9]: 800 to 4320 nM; in-vitro cytotoxicity in kidney cancer cell line (COS-1) [9]: exhibiting in-vitro cytotoxicity; IC50 [7, 17]: 10 to 5840 nM; IC50 [7, 18]: 130 nM
COc1cc2cc3c(cc2cc1OCCN1CCN(Cc2ccc4c(c2)OCO4)CC1)N=C[C@@H]1CCCN1C3=O [7a, 8-Methoxy-9-(2-[4-(1,3-benzodioxol-5-ylmethyl)piperazino]ethoxyl)(13aS)-1,2,3,13a-tetrahydro-5H-pyrrolo[2,1-c][1,4]naphthodiazepin-5-one]	640	110	2210	200	80	770	4.9	6.5	–	exhibiting in-vitro cytotoxicity	–	–	exhibiting in-vitro cytotoxicity	–	–	exhibiting in-vitro cytotoxicity	exhibiting in-vitro cytotoxicity	exhibiting in-vitro cytotoxicity	exhibiting in-vitro cytotoxicity	exhibiting in-vitro cytotoxicity	IC50 ([6]; read-out: IC50 COS-1): 2580 nM; in-vitro cytotoxicity in kidney cancer cell line (COS-1) [9]: exhibiting in-vitro cytotoxicity; IC50 [7, 12]: 50 nM
